Results on 16 molecules are retold here after patent US9376442B2, “Methylpyrrolopyrimidinecarboxamides” (Takeda GmbH, priority 2009, dated 2016).

Some results are limits rather than exact numbers.

The assay deals with T1, PDE5A1 (Homo sapiens, UniProt O76074).
T1 construct: from tissue; host or cells: human platelets from fresh donor blood (10,000 x g supernatant of sonicated lysate)
Description: Inhibition of type 5 phosphodiesterase (PDE5) activity, modified SPA test with human platelet lysate. Conditions: 0.5 μM cGMP, read-out: PDE5A1 inhibitory values [measured as −log IC50 (mol/l)] (converted). The assay is classed as biochemical. On the procedure:
Method for Measuring Inhibition of the Type 5 Phosphodiesterase (PDE5) Activity:
As a source for human PDE5, platelets are used. For that purpose, 150 ml fresh blood from human donors anticoagulated with citrate [final concentration 0.3% (w/v)] is centrifuged at 200 g for 10 min to obtain the so-called platelet-rich-plasma (PRP) as a supernatant. 1/10 volume of ACD solution (85 mM Na3-citrate, 111 mM D-glucose, 71 mM citric acid, pH 4.4) is added to 9/10 volume of PRP. After centrifugation (1,400 g, 10 min) the cell pellet is resuspended in 3 ml homogenization buffer (NaCl 140 mM, KCl 3.8 mM, EGTA (ethylene glycol tetraacetic acid) 1 mM, MgCl2 1 mM, Tris-HCl 20 mM, beta-mercaptoethanol 1 mM, pH 8.2) plus protease-inhibitor mix giving rise to the final concentrations of 0.5 mM Pefablock (Roche), 10 μM Leupeptin, 5 μM Trypsininhibitor, 2 mM Benzamidin and 10 μM Pepstatin A. The suspension is sonified and thereafter centrifuged for 15 min at 10,000 g. The resulting supernatant (platelet lysate) is used for enzymatic testings.
PDE5A1 activity is inhibited by the compounds of the present subject matter in a modified SPA (scintillation proximity assay) test, supplied by Amersham Biosciences (see procedural instructions “phosphodiesterase [3H]cAMP SPA enzyme assay, code TRKQ 7090”), carried out in 96-well microtitre plates (MTP's). The test volume is 100 μl and contains 20 mM Tris buffer (pH 7.4), 0.1 mg of BSA (bovine serum albumin)/ml, 5 mM Mg^2+, 1 μM motapizone, 10 nM PDE2 inhibitor 2-(3,4-dimethoxybenzyl)-7-[(1R,2R)-2-hydroxy-1-(2-phenylethyl)propyl]-5-methylimidazo[5,1-f][1,2,4]triazin-4(3H)-one, 0.5 μM cGMP (cyclic guanosine monophosphate) (including about 50,000 cpm of [3H]cGMP as a tracer), 1 μl of the respective compound dilution in dimethylsulfoxide (DMSO) and sufficient PDE5-containing platelet lysat (10,000×g supernatant, see above) to ensure that 10-20 wt % of the cGMP is converted under the said experimental conditions. […] After a preincubation of 5 min at 37° C., the reaction is started by adding the substrate (cGMP) and the assay is incubated for a further 15 min; after that, it is stopped by adding SPA beads (50 μl). In accordance with the manufacturer's instructions, the SPA beads had previously been resuspended in water, but are then diluted 1:3 (v/v) in water; the diluted solution also contains 3 mM […] (IBMX) to ensure a complete PDE activity stop. After the beads have been sedimented (>30 min), the MTP's are analyzed in commercially available luminescence detection devices. The corresponding IC50 values of the compounds for the inhibition of PDE activity are determined from the concentration-effect curves by means of non-linear regression.

With `Cc1[nH]c2c(-c3c(OCC4CC4)ccc4c3OCO4)ncnc2c1C(=O)NC1CN(C(=O)C(C)O)CC1O` (mixture of isomers) [Example F10, Diastereomeric mixture of 4-[5-(Cyclopropylmethoxy)-1,3-benzodioxol-4-yl]-N-{(3R,4R)-4-hydroxy-1-[(2S)-2-hydroxypropanoyl]pyrrolidin-3-yl}-6-methyl-5H-pyrrolo[3,2-d]pyrimidine-7-carboxamide and 4-[5-(cyclopropylmethoxy)-1,3-benzodioxol-4-yl]N-{(3S,4S)-4-hydroxy-1-[(2S)-2-hydroxypropanoyl]pyrrolidin-3-yl}-6-methyl-5H-pyrrolo[3,2-d]pyrimidine-7-carboxamide], the IC50 was < 1 nM.

Consider `COc1ccc(-c2ncnc3c(C(=O)NC4CN(C(=O)C(C)O)CC4O)c(C)[nH]c23)c(OCC2CC2)c1` (mixture of isomers) [Example F40, Diastereomeric mixture of 4-[2-(cyclopropylmethoxy)-4-methoxyphenyl]-N{(3R,4R)-4-hydroxy-1-[(2S)-2-hydroxypropanoyl]pyrrolidin-3-yl}-6-methyl-5H-pyrrolo[3,2-d]pyrimidine-7-carboxamide and 4-[2-(cyclopropylmethoxy)-4-methoxyphenyl]-N-{(3S,4S)-4-hydroxy-1-[(2S)-2-hydroxypropanoyl]pyrrolidin-3-yl}-6-methyl-5H-pyrrolo[3,2-d]pyrimidine-7-carboxamide], for which the IC50 was < 1 nM.

Consider `COc1ccc(OCC2CC2)c(-c2ncnc3c(C(=O)NC4CCN(C(=O)C(C)O)CC4O)c(C)[nH]c23)c1` (mixture of isomers) [Example F50, Diastereomeric mixture of 4-[2-(Cyclopropylmethoxy)-5-methoxyphenyl]-N{(3R,4R)-3-hydroxy-1-[(2S)-2-hydroxypropanoyl]piperidin-4-yl}-6-methyl-5H-pyrrolo[3,2-d]pyrimidine-7-carboxamide and 4-[2-(Cyclopropylmethoxy)-5-methoxyphenyl]-N-{(3S,4S)-3-hydroxy-1-[(2S)-2-hydroxypropanoyl]piperidin-4-yl}-6-methyl-5H-pyrrolo[3,2-d]pyrimidine-7-carboxamide], for which the IC50 was < 1 nM.

In the case of `CCc1ccc(OCC2CC2)c(-c2ncnc3c(C(=O)NC4CN(C(=O)C(C)O)CC4O)c(C)[nH]c23)c1` (mixture of isomers) [Example F98, Diastereomeric mixture of 4-[2-(cyclopropylmethoxy)-5-ethylphenyl]-N{(3R,4R)-4-hydroxy-1-[(2S)-2-hydroxypropanoyl]pyrrolidin-3-yl}-6-methyl-5H-pyrrolo[3,2-d]pyrimidine-7-carboxamide and 4-[2-(cyclopropylmethoxy)-5-ethylphenyl]-N-{(3S,4S)-4-hydroxy-1-[(2S)-2-hydroxypropanoyl]pyrrolidin-3-yl}-6-methyl-5H-pyrrolo[3,2-d]pyrimidine-7-carboxamide], the IC50 was 1 to 10 nM.

In the case of `COc1ccc(OCC2CC2)c(-c2ncnc3c(C(=O)NC4CN(C(=O)C(C)O)CC4O)c(C)[nH]c23)c1` (mixture of isomers) [Example F120, 4-[2-(Cyclopropylmethoxy)-5-methoxyphenyl]-N-{(31R*,4R*)-4-hydroxy-1-[(2S)-2-hydroxypropanoyl]pyrrolidin-3-yl}-6-methyl-5H-pyrrolo[3,2-d]pyrimidine-7-carboxamide], the IC50 is 1 to 10 nM.

`CC(=O)N1C[C@@H](O)[C@H](NC(=O)c2c(C)[nH]c3c(-c4c(OCC5CC5)ccc5c4OCO5)ncnc23)C1` (relative stereo) [Example E16, N-[(3R*,4R*)-1-acetyl-4-hydroxypyrrolidin-3-yl]-4-[5-(cyclopropylmethoxy)-1,3-benzodioxol-4-yl]-6-methyl-5H-pyrrolo[3,2-d]pyrimidine-7-carboxamide]: the IC50 is < 1 nM.

On to `CCC(=O)N1C[C@@H](O)[C@H](NC(=O)c2c(C)[nH]c3c(-c4c(OCC5CC5)ccc5c4OCO5)ncnc23)C1` (relative stereo) [Example E17, 4-[5-(Cyclopropylmethoxy)-1,3-benzodioxol-4-yl]-N-[(3R*,4R*)-4-hydroxy-1-propionylpyrrolidin-3-yl]-6-methyl-5H-pyrrolo[3,2-d]pyrimidine-7-carboxamide], for which the IC50 is < 1 nM.

Regarding `COCC(=O)N1C[C@@H](O)[C@H](NC(=O)c2c(C)[nH]c3c(-c4c(OCC5CC5)ccc5c4OCO5)ncnc23)C1` (relative stereo) [Example E18, 4-[5-(Cyclopropylmethoxy)-1,3-benzodioxol-4-yl]-N-[(3R*,4R*)-4-hydroxy-1-(methoxyacetyl)pyrrolidin-3-yl]-6-methyl-5H-pyrrolo[3,2-d]pyrimidine-7-carboxamide], the IC50 was < 1 nM.

Consider `CC(=O)N1C[C@@H](O)[C@H](NC(=O)c2c(C)[nH]c3c(-c4ccc(F)cc4OCC4CC4)ncnc23)C1` (relative stereo) [Example E31, N-[(3R*,4R*)-1-acetyl-4-hydroxypyrrolidin-3-yl]-4-[2-(cyclopropylmethoxy)-4-fluorophenyl]-6-methyl-5H-pyrrolo[3,2-d]pyrimidine-7-carboxamide], for which the IC50 is 1 to 10 nM.

As to `CCC(=O)N1C[C@@H](O)[C@H](NC(=O)c2c(C)[nH]c3c(-c4ccc(F)cc4OCC4CC4)ncnc23)C1` (relative stereo) [Example E32, 4-[2-(Cyclopropylmethoxy)-4-fluorophenyl]-N-[(3R*,4R*)-4-hydroxy-1-propanoylpyrrolidin-3-yl]-6-methyl-5H-pyrrolo[3,2-d]pyrimidine-7-carboxamide], the IC50 is 1 to 10 nM.

For the molecule `COCC(=O)N1C[C@@H](O)[C@H](NC(=O)c2c(C)[nH]c3c(-c4ccc(F)cc4OCC4CC4)ncnc23)C1` (relative stereo) [Example E33, 4-[2-(Cyclopropylmethoxy)-4-fluorophenyl]-N-[(3R*,4R*)-4-hydroxy-1-(methoxyacetyl)pyrrolidin-3-yl]-6-methyl-5H-pyrrolo[3,2-d]pyrimidine-7-carboxamide], the IC50 was 1 to 10 nM.

As for `CC(=O)N1CC[C@H](NC(=O)c2c(C)[nH]c3c(-c4ccc(F)cc4OCC4CC4)ncnc23)[C@@H](O)C1` (relative stereo) [Example E34, N-[(3S*,4S*)-1-acetyl-3-hydroxypiperidin-4-yl]-4-[2-(cyclopropylmethoxy)-4-fluorophenyl]-6-methyl-5H-pyrrolo[3,2-d]pyrimidine-7-carboxamide], the IC50 is < 1 nM.

As to `CCC(=O)N1CC[C@H](NC(=O)c2c(C)[nH]c3c(-c4ccc(F)cc4OCC4CC4)ncnc23)[C@@H](O)C1` (relative stereo) [Example E35, 4-[2-(Cyclopropylmethoxy)-4-fluorophenyl]-N-[(3S*,4S*)-3-hydroxy-1-propanoylpiperidin-4-yl]-6-methyl-5H-pyrrolo[3,2-d]pyrimidine-7-carboxamide], the IC50 was < 1 nM.

Take `COCC(=O)N1CC[C@H](NC(=O)c2c(C)[nH]c3c(-c4ccc(F)cc4OCC4CC4)ncnc23)[C@@H](O)C1` (relative stereo) [Example E36, 4-[2-(Cyclopropylmethoxy)-4-fluorophenyl]-N-[(3S*,4S*)-3-hydroxy-1-(methoxyacetyl)piperidin-4-yl]-6-methyl-5H-pyrrolo[3,2-d]pyrimidine-7-carboxamide]: the IC50 is 1 to 10 nM.

Consider `CC(=O)N1CC[C@@H](NC(=O)c2c(C)[nH]c3c(-c4cc(F)ccc4OCC4CC4)ncnc23)[C@H](O)C1` (relative stereo) [Example E49, N-[(3R*,4R*)-1-acetyl-3-hydroxypiperidin-4-yl]-4-[2-(cyclopropylmethoxy)-5-fluorophenyl]-6-methyl-5H-pyrrolo[3,2-d]pyrimidine-7-carboxamide], for which the IC50 was 1 to 10 nM.

Regarding `CCC(=O)N1CC[C@@H](NC(=O)c2c(C)[nH]c3c(-c4cc(F)ccc4OCC4CC4)ncnc23)[C@H](O)C1` (relative stereo) [Example E50, 4-[2-(Cyclopropylmethoxy)-5-fluorophenyl]-N-[(3R*,4R*)-3-hydroxy-1-propanoylpiperidin-4-yl]-6-methyl-5H-pyrrolo[3,2-d]pyrimidine-7-carboxamide], the IC50 was 1 to 10 nM.
